Experimental data published in patent US7638514B2, “Pesticidally active phenol derivatives” (Syngenta Crop Protection, Inc., priority 2003, dated 2009).

Legend:
Assay type in all cases: in vivo
[1] = test system: Spodoptera littoralis caterpillars; test: Action against Spodoptera littoralis; conditions: 72 h, 400 ppm spray mixture on young soybean plants, 10 caterpillars in the first stage, 3 days later, read-out: percentage reduction in population and percentage reduction in feeding damage (% activity)
Method: Young soybean plants are sprayed with an aqueous emulsion spray mixture comprising 400 ppm of test compound and, after the spray-coating has dried, the plants are populated with 10 caterpillars of Spodoptera littoralis in the first stage and then placed in a plastics container, 3 days later, the percentage reduction in population and the percentage reduction in feeding damage (% activity) are determined by comparing the number of dead caterpillars and the feeding damage on the treated plants with that on untreated plants.

[2] = test system: Heliothis virescens caterpillars; test: Action against Heliothis virescens caterpillars; conditions: 144 h, 400 ppm spray mixture on young soybean plants, 10 caterpillars in the first stage, evaluation 6 days later, read-out: percentage reduction in population and percentage reduction in feeding damage (% activity)
Method: Young soybean plants are sprayed with an aqueous emulsion spray mixture comprising 400 ppm of test compound. After the spray-coating has dried, the soybean plants are populated with 10 caterpillars of Heliothis virescens in the first stage and placed in a plastics container. Evaluation is made 6 days later. The percentage reduction in population and the percentage reduction in feeding damage (% activity) are determined by comparing the number of dead caterpillars and the feeding damage on the treated plants with that on the untreated plants.

[3] = test system: Plutella xylostella caterpillars; test: Action against Plutella xylostella caterpillars; conditions: 72 h, 400 ppm spray mixture on young cabbage plants, 10 caterpillars in the third stage, evaluation 3 days later, read-out: percentage reduction in population and percentage reduction in feeding damage (% activity)
Method: Young cabbage plants are sprayed with an aqueous emulsion spray mixture comprising 400 ppm of test compound. After the spray-coating has dried, the cabbage plants are populated with 10 caterpillars of Plutella xylostella in the third stage and placed in a plastics container. Evaluation is made 3 days later. The percentage reduction in population and the percentage reduction in feeding damage (% activity) are determined by comparing the number of dead caterpillars and the feeding damage on the treated plants with that on the untreated plants.

Measured: inhibition at 400 ppm

C=C(COc1ccc(C(F)(F)F)cc1)COc1c(Cl)cc(OCC=C(Cl)Cl)cc1Cl [Compound 1.9, 1,3-dichloro-5-(3,3-dichloro-allyloxy)-2-[2-(4-trifluoromethyl-phenoxymethyl)-allyloxy]-benzene]
> 80%: all assays above

O=C(NCCCOc1c(Cl)cc(OCC=C(Cl)Cl)cc1Cl)C(=C(Cl)Cl)c1ccc(C(F)(F)F)cc1 [Compound 1.2, 3,3-dichloro-N-{3-[2,6-dichloro-4-(3,3-dichloro-allyloxy)-phenoxy]-propyl}-2-(4-trifluoromethyl-phenyl)-acrylamide]
> 80%: all assays above
